18 compounds from US12534451B2, “Small molecule modulators of PanK” (St. Jude Children's Research Hospital, priority 2019, dated 2026) can be followed below.

SMILES strings stand for the structures.

The subject of assay [1] is Human C3A [HepG2/C3A] cells. The experiment in a line: Cellular total CoA determination in C3A cells. The following applies: 24 hrs of treatment. The assay is classed as cell-based. How it is done: Human C3A [HepG2/C3A, derivative of HepG2] cells (ATCC #CRL-10741) were purchased from ATCC® and maintained in Eagle's minimum Essential medium (ATCC) supplemented with 2 mM glutamine, 10% fetal bovine serum (FCS, Altanta Biologicals), 50 U/ml penicillin and […] streptomycin. The C3A cell line was confirmed to be mycoplasma-free. Test compounds or vehicle control (DMSO) was added and after 24 hrs of treatment the cells were washed with PBS and harvested and subjected to total CoA determination.
Cultured cells were resuspended in 2 ml cold water to which 500 μl of 0.25M KOH was added, derivatized with monobromobimane (mBBr, Life technologies) and quantified by HPLC. 30 mg of frozen tissue is homogenized in 2 ml of 1 mM KOH and then derivatized with mBBr. The mBBr derivatized samples were fractionated by reverse-phase HPLC using a Gemini C18 3 μm column (150×4.60 mm) from Phenomenex. The chromatography system was a Waters e2695 separation module with a UV/Vis and fluorescence detector and controlled by Empower 3 software. Solvent A was 50 mM potassium phosphate pH 4.6, and solvent B was 100% acetonitrile. Twenty microliters of sample was injected onto the column, and the flow rate was 0.5 ml/min. The HPLC program was the following: starting solvent mixture of 90% A/10% B, 0-2 min isocratic with 10% B, 2-6 min linear gradient from 10% B to 15% B, 6-18 min concave gradient from 15% B to 40% B, 18-23 min isocratic with 40% B, 23-25 min linear gradient from 40 to 10%, and 25-30 min isocratic with 10% B. The UV/vis detector was set at 393 nm, and the fluorescence detector was set with excitation at 393 nm and emission at 470 nm. The elution position of the mBBr-CoA, was determined by comparison with mBBr-CoA prepared from commercial CoA (Avanti Polar Lipids). The areas under the mBBr-derivatized CoA was integrated and compared to known concentrations of the mBBr-CoA standard.

Another assay deals with human PANK3 (Homo sapiens (Human), UniProt Q9H999). The assay is described as follows: PANK activity assay (radiochemical, D-[1-14C]pantothenate). Type of assay: biochemical. The following applies: 5 nM human PANK3, 2.5 mM ATP, 45 μM pantothenate, 10 min at 37° C.; average ± data range. How it is done: The PanK activity and Surface Plasmon Resonance assays were conducted as explained in the literature.
If the IC^50 was determined to be in the nM range then the assay was repeated in the presence of 0-1 μM or 0-0.1 μM compound to more precisely determine the IC^50. All the experiments were repeated twice in duplicate and the data were an average ±data range.
The experiments mimicking the mixture of ligands present in vivo were performed under different conditions. […] The IC^50 values for the structure-activity study were calculated by fitting the inhibition data to a one-site model of the Michaelis-Menten equation. […] Thus, the data were fit to Morrison's quadratic equation (GraphPad software) that accounts for the impact of enzyme inhibitor binding on the free concentration of inhibitor.

Broadly, the IC50 is the concentration that inhibits the measured activity by half.

Sequence of human PANK3 (Q9H999 whole entry): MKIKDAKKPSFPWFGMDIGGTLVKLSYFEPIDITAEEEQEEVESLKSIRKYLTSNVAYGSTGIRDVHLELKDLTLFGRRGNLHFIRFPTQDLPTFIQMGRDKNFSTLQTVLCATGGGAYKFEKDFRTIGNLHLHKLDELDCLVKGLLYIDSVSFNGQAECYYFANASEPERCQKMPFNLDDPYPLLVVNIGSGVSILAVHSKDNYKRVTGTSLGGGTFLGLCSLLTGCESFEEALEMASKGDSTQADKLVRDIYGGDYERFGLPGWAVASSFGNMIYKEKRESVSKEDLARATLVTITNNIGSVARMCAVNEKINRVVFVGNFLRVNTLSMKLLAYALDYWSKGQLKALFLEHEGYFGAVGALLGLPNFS

As for `O=C(Cc1ccc(C2CC2)cc1)N1CCN(c2nc3cc(F)ccc3s2)CC1` [PZ-4306], the “C3A CoA% elevation” value in assay [1] turned out to be 238.6%. On human PANK3, the IC50 is 5.4 ± 0.4 nM.
`CS(=O)(=O)Nc1ccc(CC(=O)N2CCN(c3nc4c(F)cc(F)cc4s3)CC2)cc1` [PZ-4324]: the “C3A CoA% elevation” value in assay [1] was 104.3%. This compound gave a half-maximal inhibitory concentration (IC50) on human PANK3 of 1.3 ± 0.06 nM.
On to `CN(C)c1ccc(CC(=O)N2CCN(c3nc4ncccc4s3)CC2)cc1` [PZ-4316], for which, in assay [1], the “C3A CoA% elevation” value was 183.4%. This compound showed a half-maximal inhibitory concentration (IC50) against human PANK3 of 5 ± 0.5 nM.
In the same order, the values of `O=C(Cc1ccc(C2CC2)cc1)N1CCN(c2nc3ccccc3s2)CC1` [PZ-4285] are 223.7% and 26 ± 3 nM.
Taken in the same sequence, the figures for `N#Cc1cnc(N2CCN(C(=O)Cc3ccc(C4CC4)cc3)CC2)cn1` [PZ-4284] were 448.2% and 27 ± 4 nM.
On to `O=C(Cc1ccc(C2CC2)cc1)N1CCN(c2nc3c(F)cc(F)cc3s2)CC1` [PZ-4291], for which the “C3A CoA% elevation” value in assay [1] was determined as 238.4%. In addition, the concentration for half-maximal inhibition (IC50) against human PANK3 is 2.1 ± 0.1 nM.
On to `O=C(Cc1ccc(C2CC2)cc1)N1CCN(c2nc3cccnc3o2)CC1` [PZ-4301], for which the “C3A CoA% elevation” value in assay [1] is 268.3%. Also, the IC50 against human PANK3 amounted to 52.9 ± 6.4 nM.
In the same order, the values of `CS(=O)(=O)Nc1ccc(CC(=O)N2CCN(c3ccc(Cl)nn3)CC2)cc1` [PZ-4140, N-(4-(2-(4-(6-chloropyridazin-3-yl)piperazin-1-yl)-2-oxoethyl)phenyl)methanesulfonamide] are 64.4% and 3.8 ± 0.1 nM.
`O=C(Cc1ccc(C2CC2)cc1)N1CCN(c2nc3c(F)cccc3s2)CC1` [PZ-4299]: the “C3A CoA% elevation” value in assay [1] amounted to 228.4%. On human PANK3, this compound yielded a half-maximal inhibitory concentration (IC50) of 7.2 ± 1.3 nM.
Taken in the same sequence, the figures for `O=C(Cc1ccc(C2CC2)cc1)N1CCN(c2nc3ccc(F)cc3o2)CC1` [PZ-4304] were 167% and 14.3 ± 0.6 nM.
Taken in the same sequence, the figures for `CCS(=O)(=O)Nc1ccc(CC(=O)N2CCN(c3ccc(C#N)nn3)CC2)cc1` [PZ-4215] were 160.9% and 4 ± 0.3 nM.
In the same order, the values of `O=C(Cc1ccc(C2CC2)cc1)N1CCN(c2nc3ncccc3s2)CC1` [PZ-4298] are 60.1% and 1 ± 0.1 nM.
For the compound `CN(C)c1ccc(CC(=O)N2CCN(c3nc4c(F)cc(F)cc4s3)CC2)cc1` [Lee-4296], in assay [1], the “C3A CoA% elevation” value is 198.6%. This compound also returned an IC50 on human PANK3 of 25 ± 1.6 nM.
For `CS(=O)(=O)Nc1ccc(CC(=O)N2CCN(c3nc4ncccc4s3)CC2)cc1` [PZ-4320], the “C3A CoA% elevation” value in assay [1] is listed as 58%. The half-maximal inhibitory concentration (IC50) against human PANK3 stood at 1.4 ± 0.16 nM.
Taken in the same sequence, the figures for `CS(=O)(=O)Nc1ccc(CC(=O)N2CCN(c3nc4ccccc4s3)CC2)cc1` [PZ-4294] were 102.23% and 13 ± 1.3 nM.
In the same order, the values of `CS(=O)(=O)Nc1ccc(CC(=O)N2CCN(c3nc4c(F)cccc4s3)CC2)cc1` [PZ-4322] are 171.6% and 4.1 ± 0.49 nM.
For `O=C(Cc1ccc(C2CC2)cc1)N1CCN(c2nc3ccc(F)cc3s2)CC1` [PZ-4300], in assay [1], the “C3A CoA% elevation” value is reported as 242.5%. The compound also displayed a concentration for half-maximal inhibition (IC50) against human PANK3 of 3.9 ± 0.3 nM.
Turning to `O=C(Cc1ccc(C2CC2)cc1)N1CCN(c2nc3ncccc3o2)CC1` [PZ-4314], the “C3A CoA% elevation” value in assay [1] is reported as 275%. Half-maximal inhibition on human PANK3 (IC50) was put at 2.9 ± 0.1 nM.
